{
  "source": "patent US20140045823A1",
  "about": "(Neurocrine Biosciences, Inc., priority 2012, published 2014)",
  "data": [
    {"target": "T1, human GPR119 (Homo sapiens, UniProt Q8TDV5)", "T1 construct": "expression vector for human GPR119 cDNA (Acc. No. NP_848566); expressed in transfected cells; Min-6/hGPR119", "T1 sequence (Q8TDV5 1-335)": "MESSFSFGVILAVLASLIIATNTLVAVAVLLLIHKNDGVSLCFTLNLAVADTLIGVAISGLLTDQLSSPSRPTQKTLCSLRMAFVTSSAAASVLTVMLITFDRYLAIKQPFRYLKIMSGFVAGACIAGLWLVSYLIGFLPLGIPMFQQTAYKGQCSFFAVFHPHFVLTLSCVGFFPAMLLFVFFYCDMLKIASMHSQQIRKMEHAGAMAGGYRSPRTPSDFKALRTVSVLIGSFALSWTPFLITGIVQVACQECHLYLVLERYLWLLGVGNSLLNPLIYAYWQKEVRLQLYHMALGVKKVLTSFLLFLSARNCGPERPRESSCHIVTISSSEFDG", "test": "AlphaScreen cAMP assay in MIN6 cells stably transfected with human GPR119", "format": "cell-based", "settings": "Min-6/hGPR119 cells, 45 min at room temperature", "outline": "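MIN6 cells stably expressing human GPR119, seeded 10000/well and grown 24 h, were exposed to compound in pH 7.4 buffer with 0.5 mM IBMX, 0.1% BSA and 1% DMSO for 45 min at room temperature. Intracellular cAMP then measured by AlphaScreen.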", "units": {"EC50": "nM"}, "values": [
      {"smiles": "CC(C)(C)OC(=O)N1CCC(N(C(=O)c2cnc(-c3ccc(C(=O)Nc4cccc(CO)c4)c(F)c3)nc2)C2CC2)CC1", "note": "[Example 110, 4-(Cyclopropyl-{2-[3-fluoro-4-(3-hydroxymethyl-phenylcarbamoyl)-phenyl]-pyrimidine-5-carbonyl}-amino)-piperidine-1-carboxylic acid tert-butyl ester]", "EC50": 141},
      {"smiles": "Cc1cnc(CNC(=O)c2ccc(-c3ncc(C(=O)N(C4CC4)C4CCN(C(=O)OC(C)(C)C)CC4)cn3)cc2F)s1", "note": "[Example 111, 4-[Cyclopropyl-(2-{3-fluoro-4-[(5-methyl-thiazol-2-ylmethyl)-carbamoyl]-phenyl}-pyrimidine-5-carbonyl)-amino]-piperidine-1-carboxylic acid tert-butyl ester]", "EC50": 64},
      {"smiles": "CC(C)(C)OC(=O)N1CCC(N(C(=O)c2cnc(-c3ccc(C(=O)Nc4ccn[nH]4)c(F)c3)nc2)C2CC2)CC1", "note": "[Example 112, 4-(Cyclopropyl-{2-[3-fluoro-4-(2H-pyrazol-3-ylcarbamoyl)-phenyl]-pyrimidine-5-carbonyl}-amino)-piperidine-1-carboxylic acid tert-butyl ester]", "EC50": 220},
      {"smiles": "CN(CCO)C(=O)c1ccc(-c2ncc(C(=O)N(C3CC3)C3CCN(C(=O)OC(C)(C)C)CC3)cn2)cc1F", "note": "[Example 113, 4-[Cyclopropyl-(2-{3-fluoro-4-[(2-hydroxy-ethyl)-methyl-carbamoyl]-phenyl}-pyrimidine-5-carbonyl)-amino]-piperidine-1-carboxylic acid tert-butyl ester]", "EC50": 597},
      {"smiles": "COC[C@H]1CCCN1C(=O)c1ccc(-c2ncc(C(=O)N(C3CC3)C3CCN(C(=O)OC(C)(C)C)CC3)cn2)cc1F", "note": "[Example 114, 4-(Cyclopropyl-{2-[3-fluoro-4-(2-methoxymethyl-pyrrolidine-1-carbonyl)-phenyl]-pyrimidine-5-carbonyl}-amino)-piperidine-1-carboxylic acid tert-butyl ester]", "EC50": 378},
      {"smiles": "CN(CC1CCOC1)C(=O)c1ccc(-c2ncc(C(=O)N(C3CC3)C3CCN(C(=O)OC(C)(C)C)CC3)cn2)cc1F", "note": "(stereo not shown) [Example 115, 4-[Cyclopropyl-(2-{3-fluoro-4-[methyl-(tetrahydro-furan-3-ylmethyl)-carbamoyl]-phenyl}-pyrimidine-5-carbonyl)-amino]-piperidine-1-carboxylic acid tert-butyl ester]", "EC50": 164},
      {"smiles": "CC(C)(C)OC(=O)N1CCC(N(C(=O)c2cnc(-c3ccc(C(=O)Nc4ccc(O)cc4)c(F)c3)nc2)C2CC2)CC1", "note": "[Example 116, 4-(Cyclopropyl-{2-[3-fluoro-4-(4-hydroxy-phenylcarbamoyl)-phenyl]-pyrimidine-5-carbonyl}-amino)-piperidine-1-carboxylic acid tert-butyl ester]", "EC50": 445},
      {"smiles": "CC(C)(C)OC(=O)N1CCC(N(C(=O)c2cnc(-c3ccc(C(=O)N4CCCOCC4)c(F)c3)nc2)C2CC2)CC1", "note": "[Example 117, 4-(Cyclopropyl-{2-[3-fluoro-4-([1,4]oxazepane-4-carbonyl)-phenyl]-pyrimidine-5-carbonyl}-amino)-piperidine-1-carboxylic acid tert-butyl ester]", "EC50": 275},
      {"smiles": "CO[C@@H]1CCN(C(=O)c2ccc(-c3ncc(C(=O)N(C4CC4)C4CCN(C(=O)OC(C)(C)C)CC4)cn3)cc2F)C1", "note": "[Example 118, 4-(Cyclopropyl-{2-[3-fluoro-4-(3-methoxy-pyrrolidine-1-carbonyl)-phenyl]-pyrimidine-5-carbonyl}-amino)-piperidine-1-carboxylic acid tert-butyl ester]", "EC50": 129},
      {"smiles": "Cc1nc(CNC(=O)c2ccc(-c3ncc(C(=O)N(C4CC4)C4CCN(C(=O)OC(C)(C)C)CC4)cn3)cc2F)cs1", "note": "[Example 119, 4-[Cyclopropyl-(2-{3-fluoro-4-[(2-methyl-thiazol-4-ylmethyl)-carbamoyl]-phenyl}-pyrimidine-5-carbonyl)-amino]-piperidine-1-carboxylic acid tert-butyl ester]", "EC50": 147},
      {"smiles": "COc1ccc(NC(=O)c2ccc(-c3ncc(C(=O)N(C4CC4)C4CCN(C(=O)OC(C)(C)C)CC4)cn3)cc2F)c(OC)c1", "note": "[Example 120, 4-(Cyclopropyl-{2-[4-(2,4-dimethoxy-phenylcarbamoyl)-3-fluoro-phenyl]-pyrimidine-5-carbonyl}-amino)-piperidine-1-carboxylic acid tert-butyl ester]", "EC50": 212},
      {"smiles": "CC(C)(C)OC(=O)N1CCC(N(C(=O)c2cnc(-c3ccc(C(=O)Nc4ccc(CO)cc4)c(F)c3)nc2)C2CC2)CC1", "note": "[Example 121, 4-(Cyclopropyl-{2-[3-fluoro-4-(4-hydroxymethyl-phenylcarbamoyl)-phenyl]-pyrimidine-5-carbonyl}-amino)-piperidine-1-carboxylic acid tert-butyl ester]", "EC50": 180},
      {"smiles": "COc1ccc(NC(=O)c2ccc(-c3ncc(C(=O)N(C4CC4)C4CCN(C(=O)OC(C)(C)C)CC4)cn3)cc2F)cn1", "note": "[Example 122, 4-(Cyclopropyl-{2-[3-fluoro-4-(6-methoxy-pyridin-3-ylcarbamoyl)-phenyl]-pyrimidine-5-carbonyl}-amino)-piperidine-1-carboxylic acid tert-butyl ester]", "EC50": 55},
      {"smiles": "CC(C)(C)OC(=O)N1CCC(N(C(=O)c2cnc(-c3ccc(C(=O)NCCS(C)(=O)=O)c(F)c3)nc2)C2CC2)CC1", "note": "[Example 123, 4-(Cyclopropyl-{2-[3-fluoro-4-(2-methanesulfonyl-ethylcarbamoyl)-phenyl]-pyrimidine-5-carbonyl}-amino)-piperidine-1-carboxylic acid tert-butyl ester]", "EC50": 637},
      {"smiles": "CN(CCOCC1CC1)C(=O)c1ccc(-c2ncc(C(=O)N(C3CC3)C3CCN(C(=O)OC(C)(C)C)CC3)cn2)cc1F", "note": "[Example 124, 4-[Cyclopropyl-(2-{4-[(2-cyclopropylmethoxy-ethyl)-methyl-carbamoyl]-3-fluoro-phenyl}-pyrimidine-5-carbonyl)-amino]-piperidine-1-carboxylic acid tert-butyl ester]", "EC50": 102},
      {"smiles": "CC(C)(C)OC(=O)N1CCC(N(C(=O)c2cnc(-c3ccc(C(=O)N4CCC[C@H]4C#N)c(F)c3)nc2)C2CC2)CC1", "note": "[Example 125, 4-({2-[4-(2-Cyano-pyrrolidine-1-carbonyl)-3-fluoro-phenyl]-pyrimidine-5-carbonyl}-cyclopropyl-amino)-piperidine-1-carboxylic acid tert-butyl ester]", "EC50": 180},
      {"smiles": "CC(C)(C)OC(=O)N1CCC(N(C(=O)c2cnc(-c3ccc(C(=O)NCc4ccncc4)c(F)c3)nc2)C2CC2)CC1", "note": "[Example 126, 4-[Cyclopropyl-(2-{3-fluoro-4-[(pyridin-4-ylmethyl)-carbamoyl]-phenyl}-pyrimidine-5-carbonyl)-amino]-piperidine-1-carboxylic acid tert-butyl ester]", "EC50": 99},
      {"smiles": "CN(Cc1cccnc1)C(=O)c1ccc(-c2ncc(C(=O)N(C3CC3)C3CCN(C(=O)OC(C)(C)C)CC3)cn2)cc1F", "note": "[Example 127, 4-(Cyclopropyl-{2-[3-fluoro-4-(methyl-pyridin-3-ylmethyl-carbamoyl)-phenyl]-pyrimidine-5-carbonyl}-amino)-piperidine-1-carboxylic acid tert-butyl ester]", "EC50": 108},
      {"smiles": "CC(C)(C)OC(=O)N1CCC(N(C(=O)c2cnc(-c3ccc(C(=O)NCC4CCOCC4)c(F)c3)nc2)C2CC2)CC1", "note": "[Example 128, 4-[Cyclopropyl-(2-{3-fluoro-4-[(tetrahydro-pyran-4-ylmethyl)-carbamoyl]-phenyl}-pyrimidine-5-carbonyl)-amino]-piperidine-1-carboxylic acid tert-butyl ester]", "EC50": 156}
    ]}
  ]
}
